Experimental data from patent US20150259371A1, “METHODS AND COMPOUNDS FOR INHIBITING GLYCOSYLTRANSFERASES” (SIMON FRASER UNIVERSITY, priority 2010, published 2015).

Experiments:
[1] = tested on: UDP-sugar nucleotide pools in COS-7 cells; assay: UDP-sugar pools extracted from treated COS-7 cells, capillary electrophoresis; assay type: cell-based, African green monkey
Procedure: Capillary electrophoresis (CE): CE was performed on a ProteomeLab PA800 (Beckman-Coulter) using fused silica capillaries of […]×44 cm (to detector). The running buffer was 40 mM Na2B4O7 (Sigma), pH 9.5, containing 1.0% (wv) polyethylene glycol (MW 20,000; Fluka) and filtered prior to use. The capillary was conditioned by washing with 1 N NaOH (2 min, 20 psi), 18 MΩ H2O (3 min, 20 psi) and running buffer (5 min, 40 psi). After injecting a short (15 nL) H2O plug, samples were electrostatically introduced and pre-concentrated at the anode by applying a potential of -0.5 kV for 10 s according to the field-amplified sample injection technique described by Chien and Burgi^39. Electrophoresis was carried out at a constant voltage of 30 kV and capillary temperature of 22° C. Electropherograms were derived by measuring the absorbance at 254 (+/−10) nm at a rate of 4 Hz. Peaks were integrated using 32 Karat 5.0 software (Beckman-Coulter) and all peaks were normalized to the GDP-Glc internal standard.
Extraction of nucleotide sugars from cell lysates: COS-7 cells, on 10 cm plates, were treated with 0, 50, 250 or 1000 μM Ac-5SGlcNAc for 24 h; each condition was performed in triplicate. Cells were washed gently with PBS prior to the addition of 1 mL PBS containing 10 mM EDTA. Cells were incubated at 37° C. for […], the cells scraped from the plate, and pelleted by centrifugation (1000 rpm, 10 min, 4° C.). Cell pellets were immediately lysed by the addition of 750 μL 75% (vv) ethanol (−20° C.) and sonicated using a W-375 ultrasonic processor (Heat Systems Ultrasonics, Inc.). Insoluble material was removed by centrifugation (14,000 rpm, 15 min, 4° C.) and the supernatant was snap frozen and lyophilized^44,45. The crude extract was spiked with GDP-Glc (200 pmol) as an internal standard, dissolved in 0.5 mL 18 MΩ H2O and nucleotide sugars extracted using Envi-Carb graphite solid-phase extraction cartridges (200 mg) (Supelco) as described by Räbinä et al^38. Briefly, Envi-Carb cartridges were conditioned with 80% (vv) CH3CN and 20% 0.1% (vv) TFA (3 mL), followed by 18 MΩ H2O (6 mL), before samples were applied. After passing the samples through the SPE cartridge, the cartridge was sequentially washed with 2 mL of each of 18 MΩ H2O, 25% (vv) CH3CN, and 50 mM triethylammonium acetate (TEAA), pH 7.0. Sugar nucleotides were eluted with 3×1 mL 25% CH3CN in 50 mM TEAA, pH 7.0, passed through a 0.22 μm filter (Millipore), lyophilized, and stored at −20° C. until analysis. Extracted sugar nucleotides were dissolved in 200 μL 18 MΩ H2O and an aliquot was diluted 1:4 prior to characterization by CE using a method adapted from Feng et al^46.

O-GlcNAc on nup62 = O-GlcNAc on nup62 immunoprecipitated from treated cells, chemoenzymatic labelling; assay type: cell-based; conditions: 250 μM, 24 h; streptavidin probe
Procedure: Immunoprecipitation of nup62: nup62 was immunoprecipitated from COS-7 cell lysates using the procedure described in Ref.^9. Following washing of the beads, and prior to elution, nup62 was incubated in the absence or presence of BtGH84 (overexpressed and purified as described previously^43) shaking for 2 h at room temperature, which would allow O-GlcNAc levels on nup62 to be assessed. nup62 was subsequently eluted from the beads upon addition of SDS loading buffer and boiled for 10 min.
Click-iT® kit for labelling O-GlcNAc residues: The ‘Click-iT® O-GlcNAc Enzymatic Labeling System’ was purchased from Invitrogen, and essentially the manufacturer's protocol was followed with some alterations. nup62 was immunoprecipitated and eluted from the beads in 1% SDS in 20 mM Hepes, pH 7.9, and boiled for 10 min; this was used as the substrate for the chemoenzymatic labeling using UDP-GalNAz and GalTl. Following the overnight reaction, biotinylated phosphine (in 20% DMF) was added at a final concentration of 50 μM and incubated at 37° C. for […]. The reaction was stopped by the addition of SDS-PAGE loading buffer, and the samples were boiled for 10 min. Samples were run on a gel and transferred. The same procedure as described for the western blots was used, starting from the second blocking step. Blots were then probed with HRP-conjugated streptavidin (Pierce). […]

Primary CLL cells = assay: Primary CLL cells, proliferation and toxicity with or without cytokine stimulation; assay type: cell-based; conditions: 5 days
Procedure: (§1) Primary CLL cells, obtained from Dr. David Spaner at the University of Toronto, were tested for their response to Ac-5SGlcNAc (9). Cells were plated at a confluency of 1 million cells/mL, and treated with between 0-250 μM 9, in the presence or absence of cytokine (1000 U/mL IL-2 and 1 μg/mL Resiquimod) stimulation to mimic cancer progression. Cells were observed over the course of 5 days, and harvested after this time into SDS-PAGE loading buffer before being subjected to western blotting.

cell lines examined = assay: Qualitative observation of cell morphology and proliferation in treated cell lines; assay type: cell-based; conditions: at the doses assayed
Procedure: Despite OGA levels continuing to drop and OGT levels rising over 5 days of dosing, O-GlcNAc levels remained low and unchanged after 24 hours (FIG. 2C).
Cellular responses to Ac-5SGlcNAc (9) treatment and consequent decreases in O-GlcNAc levels were evaluated. […] We quantitatively evaluated cell proliferation and established growth curves over the course of 5 days in both CHO and EMEG32 heterozygous mouse embryonic fibroblast cells treated with 50 μM Ac-5SGlcNAc (9), 50 μM Ac-GlcNAc (G), or vehicle (FIGS. 5A-B).

[2] = tested on: N-glycosylation of IgG from mouse hybridoma cell line; assay: Lectin blots of IgG immunoprecipitated from treated mouse hybridoma cells; assay type: cell-based; conditions: 0-1000 μM, 24 h
[3] = tested on: O-GlcNAc levels in primary CLL cells; assay: Western blot of O-GlcNAc levels in primary CLL cells; assay type: cell-based; conditions: 0-250 μM, 5 days
Procedure: as §1

CC(=O)NC1C(OC(C)=O)SC(COC(C)=O)C(OC(C)=O)C1OC(C)=O [Compound 9, N-Acetyl-1,3,4,6-tetra-O-acetyl-α-D-5-thio-glucosamine]
UDP-GlcNAc levels relative to basal ([1]; 50 μM): more than 60 % of basal levels | UDP-Glc and UDP-Gal levels in cells ([1]; COS-7, 0-1000 μM, 24 h): uridine diphosphoglucose and uridine diphosphogalactose levels are unaffected | UDP-GlcNAc levels in cells ([1]; COS-7, 0-1000 μM, 24 h): small decrease in UDP-GlcNAc levels | amount of UDP-5SGlcNAc in cells ([1]; COS-7, 0-1000 μM, 24 h): dose dependent increase in the amount of UDP-5SGlcNAc in cells | O-GlcNAc modification of immunoprecipitated nup62 (O-GlcNAc on nup62): shows almost no modification | toxicity to cells (Primary CLL cells; 0-250 μM, unstimulated or stimulated): not toxic to either unstimulated or stimulated cells | proliferation of cytokine-stimulated cells (Primary CLL cells; 50 μM and higher, IL-2 and Resiquimod stimulation): the proliferation that was obvious in untreated stimulated cells was absent | changes in cell morphology or rate of proliferation (cell lines examined): no apparent changes in cell morphology or rate of proliferation | GNA and ConA reactivity of hybridoma IgG [2]: slight decrease in GNA and ConA reactivity when using a very high dose | O-GlcNAc levels [3]: O-GlcNAc levels were decreased in a dose-dependent fashion
